The target of this experiment is T1, ERAP1 (Homo sapiens, UniProt Q9NZ08).
T1 construct: Purified ERAP1(37-941)-10His (ERAP1)
The experiment in a line: ERAP1 mediated hydrolysis of an amide substrate measured in a biochemical system (10-mer inhibition assay). Particulars: purified ERAP1(37-941)-10His; 10-mer substrate; 23° C. for 1 h; excitation 279 nm, emission 355 nm; read-out: IC50 vs Decapeptide WRVYEKC(Dnp)ALK-acid (where Dnp is Dinitrophenyl maleimide) (10-mer). Here is the method:
Biological Assay 1: ERAP1 Mediated Hydrolysis of an Amide Substrate Measured in a Biochemical System
• 1× Assay buffer (AB): 25 mM Bis-tris propane, 0.05% w/v • Hydroxypropylmethylcellulose pH 7.75 made with Optima grade water • Decapeptide WRVYEKC(Dnp)ALK-acid (where Dnp is Dinitrophenyl maleimide) (10-mer) • L-Leucine 7-amido-4-methylcoumarin (L-AMC) • Purified ERAP1(37-941)-10His (ERAP1) Assay Procedure:
12.5 μL ERAP1 enzyme in 1×AB was combined with 250 nL test compound in DMSO. 12.5 μL of either 240 μM L-AMC in 1×AB or 100 μM 10-mer in 1×AB was added to the reaction and incubated at 23° C. for 1 h. For detection, plates were read at excitation 365 nm and emission 442 nm (L-AMC) or excitation 279 nm and emission 355 nm (10-mer). Compound IC50 was determined using a 4-parameter equation.

Molecules are shown by their SMILES. Bounds are passed on as bounds.

T1 sequence (Q9NZ08 37-941): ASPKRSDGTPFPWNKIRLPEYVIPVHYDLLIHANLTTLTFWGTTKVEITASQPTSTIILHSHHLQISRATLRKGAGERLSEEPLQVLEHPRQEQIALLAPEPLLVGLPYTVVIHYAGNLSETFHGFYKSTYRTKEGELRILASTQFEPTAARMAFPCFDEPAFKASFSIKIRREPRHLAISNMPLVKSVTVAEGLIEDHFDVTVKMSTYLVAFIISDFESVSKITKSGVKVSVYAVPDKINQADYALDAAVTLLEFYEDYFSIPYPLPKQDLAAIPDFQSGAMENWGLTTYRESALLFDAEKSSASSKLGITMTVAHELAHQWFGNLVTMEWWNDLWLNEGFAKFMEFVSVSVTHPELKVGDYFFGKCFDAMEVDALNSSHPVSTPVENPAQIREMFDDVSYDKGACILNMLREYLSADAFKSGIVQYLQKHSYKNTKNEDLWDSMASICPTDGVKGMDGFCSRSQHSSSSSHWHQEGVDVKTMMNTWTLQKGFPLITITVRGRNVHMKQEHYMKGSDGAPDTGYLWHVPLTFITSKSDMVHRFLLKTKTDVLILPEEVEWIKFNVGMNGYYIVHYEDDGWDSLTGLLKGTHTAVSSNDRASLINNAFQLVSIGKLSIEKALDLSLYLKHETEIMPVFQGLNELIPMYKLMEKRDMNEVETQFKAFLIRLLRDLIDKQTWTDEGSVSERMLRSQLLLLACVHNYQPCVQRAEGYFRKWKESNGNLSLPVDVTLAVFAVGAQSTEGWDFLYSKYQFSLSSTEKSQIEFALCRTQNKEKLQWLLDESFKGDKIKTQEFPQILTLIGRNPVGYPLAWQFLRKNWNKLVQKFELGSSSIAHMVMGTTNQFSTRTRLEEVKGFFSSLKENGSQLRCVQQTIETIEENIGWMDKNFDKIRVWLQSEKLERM

One may read the IC50 as the midpoint of a concentration-inhibition curve. Consider `N#Cc1cc(NS(=O)(=O)c2cc(C(=O)O)ccc2C2CC2)c(OC2CCC23CC3)cc1Cl` (single isomer, unassigned) [Example 107, 3-(N-(4-chloro-5-cyano-2-(spiro[2.3]hexan-4-yloxy)phenyl)-sulfamoyl)-4-cyclopropylbenzoic acid], for which the IC50 was less than 1 nM.
`CC1CC(Oc2cc(Cl)c(C#N)cc2NS(=O)(=O)c2cc(C(=O)O)ccc2C2CC2)C1` (single isomer, unassigned) [Example 114, 3-(N-(4-chloro-5-cyano-2-(3-methylcyclobutoxy)phenyl)sulfamoyl)-4-cyclopropylbenzoic acid]: the IC50 is less than 1 nM.
As for `CC1CC(Oc2cc(Cl)c(C#N)cc2NS(=O)(=O)c2cc(C(=O)O)ccc2C2CC2)C1` (single isomer, unassigned) [Example 115, 3-(N-(4-chloro-5-cyano-2-(3-methylcyclobutoxy)phenyl)sulfamoyl)-4-cyclopropylbenzoic acid], the figure is less than 1 nM.
Next, `C#CC1CCCC1Oc1cc(Cl)c(C#N)cc1NS(=O)(=O)c1cc(C(=O)O)ccc1C1CC1` (single isomer, unassigned) [Example 116, 3-(N-(4-chloro-5-cyano-2-((trans-2-ethynylcyclopentyl)oxy)phenyl)sulfamoyl)-4-cyclopropylbenzoic acid]: more than 5 nM; `C#CC1CCCC1Oc1cc(Cl)c(C#N)cc1NS(=O)(=O)c1cc(C(=O)O)ccc1C1CC1` (single isomer, unassigned) [Example 117, 3-(N-(4-chloro-5-cyano-2-((trans-2-ethynylcyclopentyl)oxy)phenyl)sulfamoyl)-4-cyclopropylbenzoic acid]: less than 1 nM; `CC1CCC1Oc1cc(Cl)c(C#N)cc1NS(=O)(=O)c1cc(C(=O)O)ccc1C1CC1` (single isomer, unassigned) [Example 120, 3-(N-(4-chloro-5-cyano-2-(2-methylcyclobutoxy)phenyl)sulfamoyl)-4-cyclopropylbenzoic acid]: less than 1 nM.
Next, `CC1CCC1Oc1cc(Cl)c(C#N)cc1NS(=O)(=O)c1cc(C(=O)O)ccc1C1CC1` (single isomer, unassigned) [Example 121, 3-(N-(4-chloro-5-cyano-2-(2-methylcyclobutoxy)phenyl)sulfamoyl)-4-cyclopropylbenzoic acid]: less than 1 nM.
Regarding `CC1CCC1Oc1cc(Cl)c(C#N)cc1NS(=O)(=O)c1cc(C(=O)O)ccc1C1CC1` (single isomer, unassigned) [Example 122, 3-(N-(4-chloro-5-cyano-2-(2-methylcyclobutoxy)phenyl)sulfamoyl)-4-cyclopropylbenzoic acid], the IC50 was 1 to 5 nM.
For the compound `CC1CCC1Oc1cc(Cl)c(C#N)cc1NS(=O)(=O)c1cc(C(=O)O)ccc1C1CC1` (single isomer, unassigned) [Example 123, 3-(N-(4-chloro-5-cyano-2-(2-methylcyclobutoxy)phenyl)sulfamoyl)-4-cyclopropylbenzoic acid], the IC50 is less than 1 nM.
Take `C#CC1CCCC1Oc1cc(Cl)c(C#N)cc1NS(=O)(=O)c1cc(C(=O)O)ccc1C1CC1` (single isomer, unassigned) [Example 126, 3-(N-(4-chloro-5-cyano-2-((cis-2-ethynylcyclopentyl)oxy)phenyl)sulfamoyl)-4-cyclopropylbenzoic acid]: the concentration for half-maximal inhibition (IC50) is less than 1 nM.
With `C#CC1CCCC1Oc1cc(Cl)c(C#N)cc1NS(=O)(=O)c1cc(C(=O)O)ccc1C1CC1` (single isomer, unassigned) [Example 127, 3-(N-(4-chloro-5-cyano-2-((cis-2-ethynylcyclopentyl)oxy)phenyl)sulfamoyl)-4-cyclopropylbenzoic acid], the concentration for half-maximal inhibition (IC50) was more than 5 nM.
For the compound `N#Cc1cc(NS(=O)(=O)c2cc(C(=O)O)ccc2C2CC2)c(OC2CCC2O)cc1Cl` (single isomer, unassigned) [Example 128, 3-(N-(4-chloro-5-cyano-2-(trans-2-hydroxycyclobutoxy)phenyl)sulfamoyl)-4-cyclopropylbenzoic acid], the half-inhibitory concentration (IC50) is less than 1 nM.
In the case of `N#Cc1cc(NS(=O)(=O)c2cc(C(=O)O)ccc2C2CC2)c(OC2CCC2O)cc1Cl` (single isomer, unassigned) [Example 129, 3-(N-(4-chloro-5-cyano-2-(trans-2-hydroxycyclobutoxy)phenyl)sulfamoyl)-4-cyclopropylbenzoic acid], the IC50 is more than 5 nM.
For the compound `N#Cc1cc(NS(=O)(=O)c2cc(C(=O)O)ccc2C2CC2)c(OC2CCC2C2CC2)cc1Cl` (single isomer, unassigned) [Example 130, 3-(N-(4-chloro-5-cyano-2-(2-cyclopropylcyclobutoxy)phenyl)sulfamoyl)-4-cyclopropylbenzoic acid], the IC50 was 1 to 5 nM.
Take `N#Cc1cc(NS(=O)(=O)c2cc(C(=O)O)ccc2C2CC2)c(OC2CCC2C2CC2)cc1Cl` (single isomer, unassigned) [Example 131, 3-(N-(4-chloro-5-cyano-2-(2-cyclopropylcyclobutoxy)phenyl)sulfamoyl)-4-cyclopropylbenzoic acid]: the half-maximal inhibitory concentration (IC50) was less than 1 nM.
On to `N#Cc1cc(NS(=O)(=O)c2cc(C(=O)O)ccc2C2CC2)c(OC2CCC2C2CC2)cc1Cl` (single isomer, unassigned) [Example 132, 3-(N-(4-chloro-5-cyano-2-(2-cyclopropylcyclobutoxy)phenyl)sulfamoyl)-4-cyclopropylbenzoic acid], for which the IC50 is 1 to 5 nM.
As for `N#Cc1cc(NS(=O)(=O)c2cc(C(=O)O)ccc2C2CC2)c(OC2CCC2C2CC2)cc1Cl` (single isomer, unassigned) [Example 133, 3-(N-(4-chloro-5-cyano-2-(2-cyclopropylcyclobutoxy)phenyl)sulfamoyl)-4-cyclopropylbenzoic acid], the figure is 1 to 5 nM; as for `N#Cc1cc(NS(=O)(=O)c2cc(C(=O)O)ccc2C2CC2)c(OC2CCC2O)cc1Cl` (single isomer, unassigned) [Example 135, 3-(N-(4-chloro-5-cyano-2-(cis-2-hydroxycyclobutoxy)phenyl)sulfamoyl)-4-cyclopropylbenzoic acid], more than 5 nM; as for `N#Cc1cc(NS(=O)(=O)c2cc(C(=O)O)ccc2C2CC2)c(OC2CCC2O)cc1Cl` (single isomer, unassigned) [Example 136, 3-(N-(4-chloro-5-cyano-2-(csi-2-hydroxycyclobutoxy)phenyl)sulfamoyl)-4-cyclopropylbenzoic acid], less than 1 nM.
As for `COC1CCC1Oc1cc(Cl)c(C#N)cc1NS(=O)(=O)c1cc(C(=O)O)ccc1C1CC1` (single isomer, unassigned) [Example 138, 3-(N-(4-chloro-5-cyano-2-(trans-2-methoxycyclobutoxy)phenyl)sulfamoyl)-4-cyclopropylbenzoic acid], the figure is less than 1 nM; as for `COC1CCC1Oc1cc(Cl)c(C#N)cc1NS(=O)(=O)c1cc(C(=O)O)ccc1C1CC1` (single isomer, unassigned) [Example 139, 3-(N-(4-chloro-5-cyano-2-(trans-2-methoxycyclobutoxy)phenyl)sulfamoyl)-4-cyclopropylbenzoic acid], more than 5 nM; as for `N#Cc1cc(NS(=O)(=O)c2cc(C(=O)O)ccc2C2CC2)c(OC2CCC(F)(F)C2)cc1Cl` (single isomer, unassigned) [Example 140, 3-(N-(4-chloro-5-cyano-2-((3,3-difluorocyclopentyl)oxy)phenyl)sulfa-moyl)-4-cyclopropylbenzoic acid], less than 1 nM.
With `N#Cc1cc(NS(=O)(=O)c2cc(C(=O)O)ccc2C2CC2)c(OC2CCC(F)(F)C2)cc1Cl` (single isomer, unassigned) [Example 141, 3-(N-(4-chloro-5-cyano-2-((3,3-difluorocyclopentyl)oxy)phenyl)sulfa-moyl)-4-cyclopropylbenzoic acid], the IC50 is less than 1 nM.
As for `CO[C@@H]1CCC[C@@H]1Oc1cc(Cl)c(C#N)cc1NS(=O)(=O)c1cc(C(=O)O)ccc1C1CC1` (single isomer, unassigned) [Example 142, 3-(N-(4-chloro-5-cyano-2-((cis-2-methoxycyclopentyl)oxy)phenyl)sulfa-moyl)-4-cyclopropylbenzoic acid], the figure is less than 1 nM.
As for `CO[C@@H]1CCC[C@@H]1Oc1cc(Cl)c(C#N)cc1NS(=O)(=O)c1cc(C(=O)O)ccc1C1CC1` (single isomer, unassigned) [Example 143, 3-(N-(4-chloro-5-cyano-2-((cis-2-methoxycyclopentyl)oxy)phenyl)sulfa-moyl)-4-cyclopropylbenzoic acid], the figure is 1 to 5 nM.
Take `COC1CCC1Oc1cc(Cl)c(C#N)cc1NS(=O)(=O)c1cc(C(=O)O)ccc1C1CC1` (single isomer, unassigned) [Example 144, 3-(N-(4-chloro-5-cyano-2-(cis-2-methoxycyclobutoxy)phenyl)sulfamoyl)-4-cyclopropylbenzoic acid]: the IC50 is less than 1 nM.
For the compound `COC1CCC1Oc1cc(Cl)c(C#N)cc1NS(=O)(=O)c1cc(C(=O)O)ccc1C1CC1` (single isomer, unassigned) [Example 145, 3-(N-(4-chloro-5-cyano-2-(cis-2-methoxycyclobutoxy)phenyl)sulfamoyl)-4-cyclopropylbenzoic acid], the half-inhibitory concentration (IC50) lay in the range of 1 to 5 nM.
For the compound `N#Cc1cc(NS(=O)(=O)c2cc(C(=O)O)ccc2C2CC2)c(OC2CCCC2)cc1Cl` [Example 1, 3-(N-(4-chloro-5-cyano-2-(cyclopentyloxy)phenyl)sulfamoyl)-4-cyclopropylbenzoic acid], the 50% inhibitory concentration (IC50) was less than 1 nM.

Source of the values: patent US12692223B2, “Phenyl-sulfamoyl-benzoic acid derivatives as ERAP1-modulators” (GREY WOLF THERAPEUTICS LIMITED, priority 2021, dated 2026).
